Measured values reported in PMC8344253, “Identifying requirements for RSK2 specific inhibitors” (Journal of Enzyme Inhibition and Medicinal Chemistry, 2021).

Experiments:
RSK2 [1] = molecular target: T1, RSK2 (Homo sapiens, UniProt P51812); assay: FRET kinase binding assay (LanthaScreen Eu Kinase Binding Assay), full-length RSK2; details: for % Uninhibited kinase at 30 μM: 30 μM inhibitor; for IC50: 15 nM tracer; for Relative Off-Rate: slope of change in IC50 over time after 2 h pre-incubation, log-log fit
Protocol: (§1) Normalised EMR was calculated in MATLAB (Mathworks).
(§2) Hill slope and IC50 were unconstrained. […] Statistical significance is considered using α = 0.01.

RSK2 [2] = molecular target: T1, RSK2; assay: ELISA kinase activity assay, RSK2; type: biochemical; details: for IC50: 10 μM ATP, 30 min reaction; for % Uninhibited kinase at 30 μM: 30 μM inhibitor
Protocol: The activity of RSK2 was measured as previously reported. Briefly, 1 nM kinase, inhibitor or vehicle (1% DMSO), and 10 μM ATP in kinase buffer were dispensed into the wells of a 96-well plate with adsorbed glutathione S-transferase fusion protein containing the sequence […]. The reaction was stopped after 30 min, during the linear phase, with the addition of equal volume 500 mM EDTA, then phosphorylated peptide was measured by ELISA. Luminescence from wells with EDTA added before ATP was subtracted, then luminescence was normalised to the average vehicle luminescence. […] After 2 h incubation, the kinase/inhibitor mix was diluted 100-fold in kinase buffer. […] The reaction was stopped at the time indicated in the figures with the addition of EDTA, and amount of phosphorylated peptide was measured by ELISA.
as §2

RSK4 = RSK4 (Homo sapiens, UniProt Q9UK32); assay: FRET kinase binding assay, GST-tagged RSK4
Protocol: (§3) For RSK1 and RSK2 NTKD, 2 nM Eu Streptavidin and 2 nM Biotin anti-His antibody (Invitrogen) and for RSK3/4, 2 nM Eu anti-GST antibody (Invitrogen) were used in place of the Eu anti-His antibody. […] The corresponding average EMR of wells without inhibitor or kinase was subtracted, and background-subtracted EMR was normalised to average vehicle control. Normalised EMR was calculated in MATLAB (Mathworks).
(§4) Hill slope and IC50 were unconstrained. […] Curve fitting and statistics were calculated in Prism 9.0.2 (Graphpad). Statistical significance is considered using α = 0.01.
(§5) This assay uses an ATP-mimetic tracer labelled with an acceptor fluorophore and a recombinant His-tagged kinase, which is indirectly labelled with a europium donor chelated to an anti-His antibody. Interaction of the tracer with the kinase generates a FRET signal. […] GST-tagged RSK3 and RSK4 were purchased and tested with a labelled anti-GST antibody in the FRET assay.

RSK2 [3] = molecular target: T1, RSK2; assay: ELISA dilution reaction (100-fold dilution after 2 h pre-incubation), RSK2; type: biochemical
Protocol: The activity of RSK2 was measured as previously reported. Briefly, 1 nM kinase, inhibitor or vehicle (1% DMSO), and 10 μM ATP in kinase buffer were dispensed into the wells of a 96-well plate with adsorbed glutathione S-transferase fusion protein containing the sequence […]. The reaction was stopped after 30 min, during the linear phase, with the addition of equal volume 500 mM EDTA, then phosphorylated peptide was measured by ELISA. Luminescence from wells with EDTA added before ATP was subtracted, then luminescence was normalised to the average vehicle luminescence. […] After 2 h incubation, the kinase/inhibitor mix was diluted 100-fold in kinase buffer. […] After the dilution, kinase/inhibitor solution and 3.3 μM ATP in kinase buffer were mixed to initiate the reaction. The reaction was stopped at the time indicated in the figures with the addition of EDTA, and amount of phosphorylated peptide was measured by ELISA.
To further analyse the stability of RSK2 with 1c the ELISA assay was used as an orthogonal approach. […] Inhibition of kinase activity was measured at differing time points and compared to that obtained with a concentration of inhibitor equal to the concentration after dilution. […]
Figure 6. […] After dilution, ATP was added and the reaction proceeded for the times indicated, then the reaction was stopped with EDTA and the amount of phosphorylated substrate was measured by ELISA. […]

RSK2 NTKD = molecular target: T2, RSK2 NTKD (Homo sapiens, UniProt P51812); assay: FRET kinase binding assay, isolated RSK2 NTKD; details: for % Uninhibited kinase at 30 μM: 30 μM inhibitor
T2 construct: domain, containing residues 1–389; made in house
Protocol: as §1
Recombinant baculoviruses were generated by the Gateway cloning using the BaculoDirect Baculovirus Expression System (Invitrogen) according to the manufacturer's manual.The cDNA for RSK2 NTKD was amplified by conventional PCR, then cloned into pENTR-D-TOPO (pENTR Directional TOPO Cloning Kits, Invitrogen). The resulting Gateway Entry vectors were used for making the baculoviruses in the same way as RSK1 and RSK2 WT viruses. These constructs have 6xHis sequence in their C-termini and recombinant proteins were purified by Ni-NTA Agarose (Qiagen).
as §2

RSK3 = RSK3 (Homo sapiens, UniProt Q15349); assay: FRET kinase binding assay, GST-tagged RSK3
Protocol: as §3, §4, §5

RSK1 [4] = molecular target: T3, RSK1 (Homo sapiens, UniProt Q15418); assay: ELISA kinase activity assay, RSK1; type: biochemical; details: RSK1, 2 h pre-incubation
RSK1 [5] = molecular target: T3, RSK1; assay: FRET kinase binding assay, RSK1; details: for % Uninhibited kinase at 30 μM: 30 μM inhibitor
Protocol: as §1, §2
The results from the pre-incubation experiments provide an indirect measure of the inhibitor off rate whereas the simultaneous addition of inhibitor and tracer provide an indirect measure of the inhibitor on rate. […] The mechanism that accounts for the unique properties of RSK2 interacting with 1c are unknown.

RSK1 [6] = molecular target: T3, RSK1; assay: ELISA dilution reaction (100-fold dilution after 2 h pre-incubation), RSK1; type: biochemical; details: 4 h after 100-fold dilution
247 kinases = system: 247 kinases; design: method as in PMID 27528706; details: representatives from all kinase families; cited from earlier work
RSK1/2 = details: cell-based assay; cited from earlier work
[7] = FRET, RSK2, 2 h kinase-inhibitor incubation before tracer
[8] = FRET, RSK2, 5 min kinase-inhibitor incubation

T3 sequence (Q15418 whole entry): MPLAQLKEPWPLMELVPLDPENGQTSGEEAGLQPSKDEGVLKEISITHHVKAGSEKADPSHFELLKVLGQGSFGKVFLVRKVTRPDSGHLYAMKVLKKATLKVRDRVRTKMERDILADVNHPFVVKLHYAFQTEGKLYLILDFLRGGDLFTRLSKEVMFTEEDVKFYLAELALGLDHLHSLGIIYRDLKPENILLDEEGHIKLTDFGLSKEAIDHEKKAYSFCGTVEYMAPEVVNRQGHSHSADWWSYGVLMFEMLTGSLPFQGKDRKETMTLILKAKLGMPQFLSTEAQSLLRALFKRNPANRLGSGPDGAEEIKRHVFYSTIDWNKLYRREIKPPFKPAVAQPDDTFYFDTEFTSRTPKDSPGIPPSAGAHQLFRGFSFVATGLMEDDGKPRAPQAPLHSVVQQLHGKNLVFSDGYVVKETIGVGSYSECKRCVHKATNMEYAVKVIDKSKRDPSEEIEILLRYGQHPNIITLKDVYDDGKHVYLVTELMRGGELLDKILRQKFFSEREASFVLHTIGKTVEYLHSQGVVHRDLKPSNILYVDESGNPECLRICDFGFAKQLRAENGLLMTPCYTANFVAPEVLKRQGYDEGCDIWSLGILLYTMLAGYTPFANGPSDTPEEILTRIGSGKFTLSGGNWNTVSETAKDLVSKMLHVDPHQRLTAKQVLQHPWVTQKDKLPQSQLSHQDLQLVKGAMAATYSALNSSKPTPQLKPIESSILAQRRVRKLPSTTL
T1 sequence (P51812 whole entry): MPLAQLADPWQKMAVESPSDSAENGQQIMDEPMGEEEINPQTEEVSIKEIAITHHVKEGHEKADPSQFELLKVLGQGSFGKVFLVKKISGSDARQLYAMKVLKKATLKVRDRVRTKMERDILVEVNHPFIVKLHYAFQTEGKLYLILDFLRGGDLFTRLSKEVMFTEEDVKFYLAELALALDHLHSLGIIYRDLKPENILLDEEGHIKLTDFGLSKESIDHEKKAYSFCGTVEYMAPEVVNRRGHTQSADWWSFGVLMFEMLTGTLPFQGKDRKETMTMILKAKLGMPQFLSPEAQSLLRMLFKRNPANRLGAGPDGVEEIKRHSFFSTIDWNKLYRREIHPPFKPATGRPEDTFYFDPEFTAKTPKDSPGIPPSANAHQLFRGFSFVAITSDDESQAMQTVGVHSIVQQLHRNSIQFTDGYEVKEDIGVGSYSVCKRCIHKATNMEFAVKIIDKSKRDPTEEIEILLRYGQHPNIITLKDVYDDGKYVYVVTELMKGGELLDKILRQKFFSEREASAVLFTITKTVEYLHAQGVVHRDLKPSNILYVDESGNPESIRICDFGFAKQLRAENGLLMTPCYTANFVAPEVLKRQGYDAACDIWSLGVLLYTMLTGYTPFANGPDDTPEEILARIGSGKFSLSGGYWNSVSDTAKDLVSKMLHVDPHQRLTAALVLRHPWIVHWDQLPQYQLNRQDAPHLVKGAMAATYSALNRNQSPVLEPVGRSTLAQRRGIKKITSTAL
T2 sequence (P51812 1-389): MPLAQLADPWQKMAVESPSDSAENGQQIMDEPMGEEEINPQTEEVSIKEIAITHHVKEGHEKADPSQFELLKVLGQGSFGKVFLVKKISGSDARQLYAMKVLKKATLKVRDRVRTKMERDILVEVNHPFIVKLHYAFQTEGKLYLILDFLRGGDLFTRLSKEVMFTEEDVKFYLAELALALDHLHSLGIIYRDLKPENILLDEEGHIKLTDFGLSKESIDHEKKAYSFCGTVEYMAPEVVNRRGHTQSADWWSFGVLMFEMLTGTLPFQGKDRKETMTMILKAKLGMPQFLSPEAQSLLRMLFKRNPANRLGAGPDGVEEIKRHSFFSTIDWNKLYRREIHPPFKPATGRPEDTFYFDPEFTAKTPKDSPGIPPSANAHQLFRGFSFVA
RSK4, sequence (Q9UK32 whole entry, species assumed): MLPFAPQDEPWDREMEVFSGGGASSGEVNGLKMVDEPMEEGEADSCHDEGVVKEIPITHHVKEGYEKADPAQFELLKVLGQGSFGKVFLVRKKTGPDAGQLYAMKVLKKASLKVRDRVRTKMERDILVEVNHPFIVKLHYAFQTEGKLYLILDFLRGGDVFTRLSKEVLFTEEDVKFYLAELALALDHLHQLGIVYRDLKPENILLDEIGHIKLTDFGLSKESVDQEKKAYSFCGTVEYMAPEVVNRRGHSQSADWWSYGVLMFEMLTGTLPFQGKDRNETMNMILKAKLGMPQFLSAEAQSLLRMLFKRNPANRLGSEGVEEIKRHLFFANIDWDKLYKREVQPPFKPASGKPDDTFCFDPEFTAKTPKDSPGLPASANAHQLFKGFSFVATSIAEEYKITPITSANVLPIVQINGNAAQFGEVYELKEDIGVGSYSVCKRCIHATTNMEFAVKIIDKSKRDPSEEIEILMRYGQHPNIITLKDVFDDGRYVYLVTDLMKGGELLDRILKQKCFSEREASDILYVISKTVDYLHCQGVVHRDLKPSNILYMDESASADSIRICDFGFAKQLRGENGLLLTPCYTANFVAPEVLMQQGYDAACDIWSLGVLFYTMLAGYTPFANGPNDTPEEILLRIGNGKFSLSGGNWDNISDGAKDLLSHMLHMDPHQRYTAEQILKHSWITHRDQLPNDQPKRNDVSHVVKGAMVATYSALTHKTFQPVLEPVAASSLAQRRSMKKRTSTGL
RSK3, sequence (Q15349 whole entry, species assumed): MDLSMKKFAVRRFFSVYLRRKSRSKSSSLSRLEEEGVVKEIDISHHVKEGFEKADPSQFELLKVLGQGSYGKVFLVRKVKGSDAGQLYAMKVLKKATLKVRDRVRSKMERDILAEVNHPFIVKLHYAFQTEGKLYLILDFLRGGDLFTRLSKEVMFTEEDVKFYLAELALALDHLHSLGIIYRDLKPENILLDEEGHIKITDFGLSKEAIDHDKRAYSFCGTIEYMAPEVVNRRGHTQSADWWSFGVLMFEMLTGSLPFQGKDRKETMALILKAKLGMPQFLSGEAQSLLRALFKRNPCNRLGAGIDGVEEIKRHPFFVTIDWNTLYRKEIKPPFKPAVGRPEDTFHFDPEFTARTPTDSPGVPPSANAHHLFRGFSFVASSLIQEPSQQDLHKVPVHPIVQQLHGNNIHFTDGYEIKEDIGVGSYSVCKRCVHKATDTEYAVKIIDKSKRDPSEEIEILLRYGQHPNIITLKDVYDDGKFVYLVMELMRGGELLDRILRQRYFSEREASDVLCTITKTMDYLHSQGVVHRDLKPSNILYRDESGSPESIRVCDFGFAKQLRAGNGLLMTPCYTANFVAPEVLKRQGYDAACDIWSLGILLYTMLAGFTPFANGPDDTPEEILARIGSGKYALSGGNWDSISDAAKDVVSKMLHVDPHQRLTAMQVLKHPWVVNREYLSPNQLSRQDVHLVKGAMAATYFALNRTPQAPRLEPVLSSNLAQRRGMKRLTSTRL

Row | Compound | % Uninhibited kinase at 30 μM (RSK2 [1]; FRET, RSK2, 2 h incubation) [%] | IC50 (RSK2 [1]; [7]) [nM] | Relative Off-Rate (RSK2 [1]; RSK2) | IC50 (RSK2 [2]; RSK2, 2 h pre-incubation) [nM] | % Uninhibited kinase at 30 μM (RSK2 [2]; RSK2, 2 h pre-incubation) [%] | % Uninhibited kinase at 30 μM (RSK2 [1]; FRET, RSK2, 5 min incubation) [%] | % Uninhibited kinase at 30 μM (RSK2 NTKD; 2 h incubation) [%] | IC50 (RSK1 [5]; FRET, RSK1, 2 h incubation) [nM] | % Uninhibited kinase at 30 μM (RSK1 [5]; FRET, RSK1, 2 h incubation) [%] | IC50 (RSK2 [1]; [8]) [nM] | other results
1 | CCCNC(=O)OC1C(CCC)CC(Oc2c(-c3ccc(O)cc3)oc3cc(O)cc(O)c3c2=O)C(O)C1OC(C)=O (stereo not drawn) [Inhibitor 1d] | 0.5 | 26.3 | 0.548 log10(nM/min) | 74.1 | 11.1 |  |  |  |  |  | 
2 | CC(=O)OC1C(C)OC(Oc2c(-c3ccc(O)cc3)oc3cc(O)cc(O)c3c2=O)C(O)C1OC(C)=O (stereo not drawn) [SL0101, reference compound] | 4.3 |  |  |  | 13.9 | 45.7 | 11.5 | 193 | 16.7 |  | Inhibition after 5 min incubation (RSK2 [1]; FRET, RSK2, 5 min incubation): ~50%; Inhibition of RSK4 (RSK4; 2 h incubation): did not inhibit; % Uninhibited kinase at 30 μM (RSK4; RSK4, 2 h incubation, 30 μM inhibitor): 70.9%; Inhibition of RSK2 after the dilution (RSK2 [3]; 4 h after 100-fold dilution, 100 nM RSK2 pre-incubated 2 h with 5 μM SL0101): unable to inhibit; Increase in IC50 with 5 min vs 2 h incubation (RSK2 NTKD): two-fold; Inhibition after 5 min incubation (RSK2 NTKD; 5 min incubation): ~80%; % Uninhibited kinase at 30 μM (RSK2 NTKD; 5 min incubation): 20.1%; Inhibition of RSK3 (RSK3; 2 h incubation): did not inhibit; % Uninhibited kinase at 30 μM (RSK3; RSK3, 2 h incubation, 30 μM inhibitor): 90.3%; IC50 (RSK1 [4]): 70.7 nM; % Uninhibited kinase at 30 μM (RSK1 [4]; 30 μM inhibitor): 3.9%; Increase in IC50 with 5 min vs 2 h pre-incubation (RSK2 [2]; RSK2): two-fold; % Uninhibited kinase at 30 μM (RSK2 [2]; RSK2, 5 min pre-incubation): 31.6%; IC50 (RSK1 [5]; FRET, RSK1, 5 min incubation): 774 nM; Inhibition after 5 min incubation (RSK1 [5]; FRET, RSK1, 5 min incubation): 80%; % Uninhibited kinase at 30 μM (RSK1 [5]; FRET, RSK1, 5 min incubation): 19.2%
3 | CCCNC(=O)OC1C(CCC)CC(Oc2c(-c3ccc(O)cc3)oc3cc(O)cc(O)c3c2=O)C(O)C1OC(=O)NCCC (stereo not drawn) [Inhibitor 1f] | 1.3 | 90.9 | 0.630 log10(nM/min) |  |  |  |  |  |  |  | 
4 | CCCNC(=O)O[C@@H]1[C@@H](OC(=O)NCCC)[C@@H](O)[C@H](Oc2c(-c3ccc(O)cc3)oc3cc(O)cc(O)c3c2=O)O[C@H]1CCC [Inhibitor 1e, (2 s,3S,4S,5R,6S)-6-((5,7-dihydroxy-2–(4-hydroxyphenyl)-4-oxo-4H-chromen-3-yl)oxy)-5-hydroxy-2-propyltetrahydro-2H-pyran-3,4-diyl bis(n-propylcarbamate)] | 0.8 | 83.7 | 0.417 log10(nM/min) |  |  |  |  |  |  |  | melting point: 158 to 160 °C
5 | CCCNC(=O)O[C@@H]1[C@@H](OC(C)=O)[C@@H](O)[C@H](Oc2c(-c3ccc(O)cc3)oc3cc(O)cc(O)c3c2=O)O[C@H]1CCC [Inhibitor 1c, (2 s,3R,4S,5S,6S)-2-((5,7-dihydroxy-2–(4-hydroxyphenyl)-4-oxo-4H-chromen-3-yl)oxy)-3-hydroxy-6-propyl-5-((propylcarbamoyl)oxy)tetrahydro-2H-pyran-4-yl acetate] | 0.3 | 37.4 | 0.126 log10(nM/min) | 84.7 | 9.4 | 26.2 | 11.1 | 12.8 | 6.1 | 6400 | Inhibition at 8-fold higher concentration than the IC50 (RSK2 [1]; FRET, RSK2, 5 min pre-incubation): 75%; Off rate lower than that of 1d, 1e, and 1f (RSK2 [1]; RSK2, relative off-rate comparison): more than three-fold; Relative on-rate (RSK2 [1]; RSK2, change in IC50 over time, tracer added simultaneously with inhibitor): −1.204 log10(nM/min); Off: On Ratio (RSK2 [1]; RSK2, ratio of absolute value of relative off-rate to on-rate): 0.10; inhibition at 1.5 µM (RSK2 [3]; over a 12 h time course after 100-fold dilution, 100 nM RSK2 pre-incubated 2 h with 1.5 μM 1c): ~50%; Inhibition of RSK1 after the dilution (RSK1 [6]): not inhibited; IC50 (RSK2 NTKD; 2 h incubation): 12 nM; Relative on-rate (RSK1 [5]; RSK1, change in IC50 over time, tracer added simultaneously with inhibitor): −0.719 log10(nM/min); Off: On Ratio (RSK1 [5]; RSK1, ratio of absolute value of relative off-rate to on-rate): 0.25; Relative Off-Rate (RSK1 [5]; RSK1, slope of change in IC50 over time after 2 h pre-incubation, log-log fit): 0.176 log10(nM/min)
6 | CCCC1CC(Oc2c(-c3ccc(O)cc3)oc3cc(O)cc(O)c3c2=O)C(O)C(OC(C)=O)C1OC(C)=O (stereo not drawn) [Inhibitor 1b, C5”-n-propyl cyclitol SL0101] | 1.3 | 215 | 0.601 log10(nM/min) | 183 | 15.7 | 49.7 |  |  |  | 24100 | Specificity in screen of 247 kinases (247 kinases): primarily targeted RSK1/2; Inhibition of proliferation when RSK1/2 silenced (RSK1/2): ineffective
